Columns and labels:
Format in all cases: biochemical
LSD4 = target: T1, LSD4 (Sphingobium sp. SYK-6, UniProt Z9AM74RXJ0); assay: O2 electrode (oxygraph) inhibition kinetics; settings: read-out: Kic
T1 construct: residues 2-489 modelled; Fe2+ enzyme, Co-LSD4 for complexes
T1 sequence (Z9AM74RXJ0 1-489): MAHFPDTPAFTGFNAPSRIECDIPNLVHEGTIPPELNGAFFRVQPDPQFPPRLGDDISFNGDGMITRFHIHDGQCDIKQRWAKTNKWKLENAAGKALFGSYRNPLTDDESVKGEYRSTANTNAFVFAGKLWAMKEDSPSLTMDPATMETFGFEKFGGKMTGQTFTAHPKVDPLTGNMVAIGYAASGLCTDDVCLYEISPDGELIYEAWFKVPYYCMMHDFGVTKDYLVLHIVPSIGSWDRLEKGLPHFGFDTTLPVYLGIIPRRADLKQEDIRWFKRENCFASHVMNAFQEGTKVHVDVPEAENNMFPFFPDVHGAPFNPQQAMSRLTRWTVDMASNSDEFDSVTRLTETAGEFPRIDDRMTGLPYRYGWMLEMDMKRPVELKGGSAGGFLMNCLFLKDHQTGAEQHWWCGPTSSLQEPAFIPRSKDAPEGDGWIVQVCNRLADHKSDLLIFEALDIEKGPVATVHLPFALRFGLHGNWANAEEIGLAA

LSD7 = target: T2, LSD7 (Sphingobium sp. SYK-6, UniProt G2INY0); assay: oxygraph O2 consumption, E. coli lysate; settings: 100 μM substrate
T2 construct: gene SLG_09440; pET41b, E. coli BL21(DE3) lysate
T2 sequence (G2INY0 1-483): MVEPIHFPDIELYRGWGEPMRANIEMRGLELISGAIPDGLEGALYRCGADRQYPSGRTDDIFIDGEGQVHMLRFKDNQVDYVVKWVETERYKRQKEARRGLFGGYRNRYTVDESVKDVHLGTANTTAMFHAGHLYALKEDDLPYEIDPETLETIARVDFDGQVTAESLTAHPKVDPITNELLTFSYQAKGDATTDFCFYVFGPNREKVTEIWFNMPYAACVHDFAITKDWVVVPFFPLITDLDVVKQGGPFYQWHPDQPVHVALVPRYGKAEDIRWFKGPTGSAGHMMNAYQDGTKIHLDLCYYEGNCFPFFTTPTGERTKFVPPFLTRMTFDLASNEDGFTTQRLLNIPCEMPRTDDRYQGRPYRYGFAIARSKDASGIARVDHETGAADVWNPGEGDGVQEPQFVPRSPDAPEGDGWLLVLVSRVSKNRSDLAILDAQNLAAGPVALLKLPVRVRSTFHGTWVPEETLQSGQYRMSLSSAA

LSD5 = target: T3, LSD5 (Sphingobium sp. SYK-6, UniProt G2IKS0); assay: oxygraph O2 consumption, E. coli lysate; settings: 100 μM substrate
T3 construct: gene SLG_27970; pET41b, E. coli BL21(DE3) lysate
T3 sequence (G2IKS0 1-492): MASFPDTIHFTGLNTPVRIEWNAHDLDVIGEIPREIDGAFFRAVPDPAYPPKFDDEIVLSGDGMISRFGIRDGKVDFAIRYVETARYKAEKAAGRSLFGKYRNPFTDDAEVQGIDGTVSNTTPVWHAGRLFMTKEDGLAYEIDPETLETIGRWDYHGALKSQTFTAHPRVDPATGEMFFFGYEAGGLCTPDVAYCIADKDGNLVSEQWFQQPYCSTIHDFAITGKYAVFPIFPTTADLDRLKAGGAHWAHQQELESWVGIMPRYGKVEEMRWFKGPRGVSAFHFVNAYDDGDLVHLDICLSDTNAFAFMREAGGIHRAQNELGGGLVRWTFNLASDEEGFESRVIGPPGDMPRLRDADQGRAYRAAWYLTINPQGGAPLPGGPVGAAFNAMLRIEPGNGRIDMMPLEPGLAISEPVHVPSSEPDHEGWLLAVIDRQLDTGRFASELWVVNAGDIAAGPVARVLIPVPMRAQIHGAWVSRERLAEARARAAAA

LSD2 = target: T4, LSD2 (Sphingobium sp. SYK-6, UniProt G2IQG5); assay: oxygraph O2 consumption, E. coli lysate; settings: 100 μM substrate
T4 construct: gene SLG_36640; pET41b, E. coli BL21(DE3) lysate, co-produced with GroEL/GroES
T4 sequence (G2IQG5 1-490): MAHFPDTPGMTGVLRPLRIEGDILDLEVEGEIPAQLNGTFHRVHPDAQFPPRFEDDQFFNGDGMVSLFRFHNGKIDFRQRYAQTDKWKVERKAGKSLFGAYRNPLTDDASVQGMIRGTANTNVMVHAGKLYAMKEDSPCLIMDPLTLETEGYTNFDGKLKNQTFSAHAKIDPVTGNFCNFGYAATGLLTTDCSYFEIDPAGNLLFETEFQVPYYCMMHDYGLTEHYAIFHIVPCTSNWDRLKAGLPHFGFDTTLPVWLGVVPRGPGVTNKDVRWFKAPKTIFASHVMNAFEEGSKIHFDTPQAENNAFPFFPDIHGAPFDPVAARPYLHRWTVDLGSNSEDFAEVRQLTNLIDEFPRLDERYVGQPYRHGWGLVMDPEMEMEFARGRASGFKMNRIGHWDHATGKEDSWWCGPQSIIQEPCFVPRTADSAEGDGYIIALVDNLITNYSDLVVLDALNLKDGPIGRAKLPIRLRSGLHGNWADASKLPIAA

LSD1 = target: T5, LSD1 (Sphingobium sp. SYK-6, UniProt G2IR63); assay: oxygraph O2 consumption, E. coli lysate; settings: 100 μM substrate
T5 construct: gene SLG_37540; pET41b, E. coli BL21(DE3) lysate, co-produced with GroEL/GroES
T5 sequence (G2IR63 1-486): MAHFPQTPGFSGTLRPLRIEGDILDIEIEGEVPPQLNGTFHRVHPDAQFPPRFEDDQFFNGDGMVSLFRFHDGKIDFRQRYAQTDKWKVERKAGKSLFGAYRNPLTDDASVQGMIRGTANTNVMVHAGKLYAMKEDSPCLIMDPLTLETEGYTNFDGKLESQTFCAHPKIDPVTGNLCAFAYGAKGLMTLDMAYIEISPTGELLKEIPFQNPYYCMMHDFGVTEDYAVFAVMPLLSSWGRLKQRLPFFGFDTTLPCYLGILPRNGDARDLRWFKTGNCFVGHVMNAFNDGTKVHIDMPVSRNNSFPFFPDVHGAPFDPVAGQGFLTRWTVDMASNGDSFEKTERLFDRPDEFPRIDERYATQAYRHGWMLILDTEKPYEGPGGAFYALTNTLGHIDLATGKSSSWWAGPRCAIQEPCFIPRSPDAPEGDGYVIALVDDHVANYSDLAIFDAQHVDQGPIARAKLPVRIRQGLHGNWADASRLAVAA

LSD3 = target: T6, LSD3 (Sphingobium sp. SYK-6, UniProt G2IPX7); assay: oxygraph O2 consumption, E. coli lysate; settings: 100 μM substrate
T6 construct: gene SLG_11300; pET41b, E. coli BL21(DE3) lysate
T6 sequence (G2IPX7 1-491): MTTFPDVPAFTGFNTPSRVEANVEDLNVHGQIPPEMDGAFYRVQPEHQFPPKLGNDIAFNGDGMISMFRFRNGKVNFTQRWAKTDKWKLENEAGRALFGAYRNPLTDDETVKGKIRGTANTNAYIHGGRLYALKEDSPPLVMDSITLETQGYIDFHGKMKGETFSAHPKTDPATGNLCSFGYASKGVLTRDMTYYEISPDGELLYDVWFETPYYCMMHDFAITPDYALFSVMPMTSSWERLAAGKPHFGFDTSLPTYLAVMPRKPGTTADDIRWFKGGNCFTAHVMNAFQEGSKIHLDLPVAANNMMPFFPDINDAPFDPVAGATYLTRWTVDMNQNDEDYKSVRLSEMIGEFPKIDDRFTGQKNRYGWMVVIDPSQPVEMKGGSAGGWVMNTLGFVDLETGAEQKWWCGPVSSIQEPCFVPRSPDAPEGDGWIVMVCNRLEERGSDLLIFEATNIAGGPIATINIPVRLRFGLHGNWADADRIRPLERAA

LSD6 = target: T7, LSD6 (Sphingomonas paucimobilis, UniProt Q8RQW2); assay: oxygraph O2 consumption, E. coli lysate; settings: 100 μM substrate
T7 construct: gene lsdA; pET41b, E. coli BL21(DE3) lysate
T7 sequence (Q8RQW2 1-491): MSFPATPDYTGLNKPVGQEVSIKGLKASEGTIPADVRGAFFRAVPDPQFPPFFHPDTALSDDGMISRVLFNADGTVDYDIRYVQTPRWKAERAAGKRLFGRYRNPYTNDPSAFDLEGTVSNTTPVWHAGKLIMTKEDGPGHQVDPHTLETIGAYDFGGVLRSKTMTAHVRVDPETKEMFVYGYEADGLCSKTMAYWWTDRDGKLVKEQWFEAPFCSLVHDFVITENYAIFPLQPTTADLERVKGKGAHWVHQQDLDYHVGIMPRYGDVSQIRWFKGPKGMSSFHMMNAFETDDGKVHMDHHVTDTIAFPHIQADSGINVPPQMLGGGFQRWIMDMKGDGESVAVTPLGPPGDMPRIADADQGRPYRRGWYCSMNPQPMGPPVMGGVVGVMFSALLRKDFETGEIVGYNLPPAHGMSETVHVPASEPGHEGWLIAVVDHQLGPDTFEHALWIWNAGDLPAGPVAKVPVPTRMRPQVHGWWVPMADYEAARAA

Row | Ki (LSD4) [µM] | Structure (SMILES) | relative activity (LSD7) | relative activity (LSD5) | relative activity (LSD2) | relative activity (LSD1) | relative activity (LSD3) | relative activity (LSD6)
1 | 30 ± 8 | COc1cc(C=O)ccc1O [vanillin] | – | – | – | – | – | –
2 | – | COc1cc(/C=C/c2ccc(O)c(OC)c2)ccc1O [compound 2, lignostilbene] | cell lysates containing LSD1, LSD5, LSD6, or LSD7 preferentially cleaved lignostilbene over DCA-S | cell lysates containing LSD1, LSD5, LSD6, or LSD7 preferentially cleaved lignostilbene over DCA-S | The seven soluble enzymes all cleaved lignostilbene | cell lysates containing LSD1, LSD5, LSD6, or LSD7 preferentially cleaved lignostilbene over DCA-S | The seven soluble enzymes all cleaved lignostilbene | cell lysates containing LSD1, LSD5, LSD6, or LSD7 preferentially cleaved lignostilbene over DCA-S
